# Legend:
# broilers [1] = assay: Crude fat content in liver of broilers (Test Example 1); format: in vivo, "A A Fuji" broilers (chicken)
# Method: (§1) To each group consisting of 30 "A A Fuji" broilers (15 male, 15 female), a commercially available early period broiler feed (crumble form, Cp 22%, ME 3,030 kcal/kg) was given from beginning of feeding to 4 week age, and a latter period broiler feed (mash form, Cp 18%, ME 3,030 kcal/kg) was given ad libitum from 4 week age to 10 week age. The test period was from Oct. 10, 1981 through Dec. 20, 1981. Addition of test compounds to the above feeds in predetermined concentrations was conducted from 3 week age through the completion of the test.
# (§2) Five broilers at 6 week age, five broilers at 8 week age and ten broilers at 10 week age were taken out from each group and slaughtered. Immediately after slaughtering, they were cooled in water for about 2 hr and the body weight of each slaughtered broiler was measured and subsequently they were stored at 2° C. for about 20 hr. Then, in order to measure abdominal fat, mesentary fat was removed and fat adhered to from gizzard to proventriculus was collected and weighed as the weight of abdominal fat. This weight was divided by body weight to obtain abdominal fat deposit per 100 g of body weight. Further, liver fat was also collected and weighed. A liver under freeze storage was cut into slices in a total quantity of 2 to 3 g. The slices were placed in a cylindrical filter paper and weighed. Then, these slices were dried for 3 hr in a hot air drier kept at 90° C. and subsequently extracted for 17 hr with ethyl ether in a Soxhlet fat extractor. After drying the extract for 3 hr at 60° C. and weighing the residue, crude fat content in liver was calculated.
# laying hens [2] = assay: Thickness of eggshell of laying hens (Test Example 2); format: in vivo
# Description: (§3) As test hens, commercially available laying hens of 480 day age were used. The control group fed with a feed not containing any compound of this invention consisted of 100 laying hens, and each test group fed with a feed containing a compound of this invention consisted of 10 laying hens. The test was repeated twice. The test period was 16 weeks from Nov. 17, 1981 to Mar. 8, 1982. The first 4 weeks from the start was a preliminary observation period, during which each group was controlled so as to give the same egg production rate. As the feed, a commercially available feed for laying hens (Cp 16% or above, ME 2,800 kcal/kg or above) was used. From the 5th week, predetermined quantities of test compounds were uniformly added to this feed and the resulting blended feeds were given to test groups. Feeds and water were given ad libitum. Constant lighting was made for 14 hr a day. Egg production rate was daily recorded for each individual hen and egg weight for each test group. Feed intake quantity was obtained by calculating on every other week a difference between quantity fed and quantity left. For examining egg quality, strength of eggshell and thickness of eggshell were measured for all normal eggs laid during a period of the previous day of measurement to 3 P.M. of the measurement day. Strength of eggshell was measured by a FHK eggshell strength tester model FN-597, and thickness of eggshell by a dial thickness gauge.
# LD50 mouse (male) = settings: in vivo
# Description: Examples of the compounds represented by the general formula [1] according to this invention and their toxicities are shown below.
# laying hens [3] = assay: Strength of eggshell of laying hens (Test Example 2); format: in vivo
# Description: as §3
# [4] = Growth of body weight of broilers (Test Example 1); format: in vivo, "A A Fuji" broilers (chicken); settings: for Body weight at week age 0: week age 0 (before addition); for Body weight at week age 3: week age 3 (start of addition)
# Method: as §1
# (1) Growth of body weight
# […] All broilers were measured and an average body weight was calculated for each group.
# broilers [5] = assay: Abdominal fat deposit of broilers (Test Example 1); format: in vivo, "A A Fuji" broilers (chicken)
# Method: as §1, §2
smiles,measurement,setting,value
CC(C)OC(=O)C(C(=O)OC(C)C)=C1SCCS1 [compound 6],Crude fat content in liver,"broilers [1]; 6w, 100 ppm in feed",2.23%
same,Crude fat content in liver,"broilers [1]; 6w, 200 ppm in feed",2.03%
same,Crude fat content in liver,"broilers [1]; 6w, 400 ppm in feed",2.15%
same,Crude fat content in liver,"broilers [1]; 6w, 800 ppm in feed",2.14%
same,Crude fat content in liver,"broilers [1]; 6w, 1,600 ppm in feed",2.08%
same,Crude fat content in liver,"broilers [1]; 8w, 100 ppm in feed",5.51%
same,Crude fat content in liver,"broilers [1]; 8w, 200 ppm in feed",4.97%
same,Crude fat content in liver,"broilers [1]; 8w, 400 ppm in feed",4.53%
same,Crude fat content in liver,"broilers [1]; 8w, 800 ppm in feed",4.26%
same,Crude fat content in liver,"broilers [1]; 8w, 1,600 ppm in feed",4.32%
same,Crude fat content in liver,"broilers [1]; 10w, 100 ppm in feed",5.09%
same,Crude fat content in liver,"broilers [1]; 10w, 200 ppm in feed",4.33%
same,Crude fat content in liver,"broilers [1]; 10w, 400 ppm in feed",4.26%
same,Crude fat content in liver,"broilers [1]; 10w, 800 ppm in feed",4.33%
same,Crude fat content in liver,"broilers [1]; 10w, 1,600 ppm in feed",4.32%
same,Eggshell thickness,"laying hens [2]; 509th day, 5 ppm in feed",0.328 mm
same,Eggshell thickness,"laying hens [2]; 509th day, 25 ppm in feed",0.345 mm
same,Eggshell thickness,"laying hens [2]; 509th day, 125 ppm in feed",0.343 mm
same,Eggshell thickness,"laying hens [2]; 509th day, 625 ppm in feed",0.325 mm
same,Eggshell thickness,"laying hens [2]; 555th day, 5 ppm in feed",0.341 mm
same,Eggshell thickness,"laying hens [2]; 555th day, 25 ppm in feed",0.345 mm
same,Eggshell thickness,"laying hens [2]; 555th day, 125 ppm in feed",0.340 mm
same,Eggshell thickness,"laying hens [2]; 555th day, 625 ppm in feed",0.346 mm
same,Eggshell thickness,"laying hens [2]; 612th day, 5 ppm in feed",0.344 mm
same,Eggshell thickness,"laying hens [2]; 612th day, 25 ppm in feed",0.341 mm
same,Eggshell thickness,"laying hens [2]; 612th day, 125 ppm in feed",0.342 mm
same,Eggshell thickness,"laying hens [2]; 612th day, 625 ppm in feed",0.348 mm
same,LD50,LD50 mouse (male),1350 mg/kg
same,Eggshell strength,"laying hens [3]; 509th day, 5 ppm in feed",2.40 kg
same,Eggshell strength,"laying hens [3]; 509th day, 25 ppm in feed",2.47 kg
same,Eggshell strength,"laying hens [3]; 509th day, 125 ppm in feed",2.39 kg
same,Eggshell strength,"laying hens [3]; 509th day, 625 ppm in feed",2.42 kg
same,Eggshell strength,"laying hens [3]; 555th day, 5 ppm in feed",2.75 kg
same,Eggshell strength,"laying hens [3]; 555th day, 25 ppm in feed",2.88 kg
same,Eggshell strength,"laying hens [3]; 555th day, 125 ppm in feed",2.95 kg
same,Eggshell strength,"laying hens [3]; 555th day, 625 ppm in feed",3.01 kg
same,Eggshell strength,"laying hens [3]; 612th day, 5 ppm in feed",2.74 kg
same,Eggshell strength,"laying hens [3]; 612th day, 25 ppm in feed",2.99 kg
same,Eggshell strength,"laying hens [3]; 612th day, 125 ppm in feed",3.11 kg
same,Eggshell strength,"laying hens [3]; 612th day, 625 ppm in feed",3.07 kg
same,Body weight at week age 0,[4]; 100 ppm in feed from 3 week age,41 g
same,Body weight at week age 0,[4]; 200 ppm in feed from 3 week age,41 g
same,Body weight at week age 0,[4]; 400 ppm in feed from 3 week age,41 g
same,Body weight at week age 0,[4]; 800 ppm in feed from 3 week age,41 g
same,Body weight at week age 0,"[4]; 1,600 ppm in feed from 3 week age",41 g
same,Body weight at week age 3,[4]; 100 ppm in feed,628 g
same,Body weight at week age 3,[4]; 200 ppm in feed,623 g
same,Body weight at week age 3,[4]; 400 ppm in feed,624 g
same,Body weight at week age 3,[4]; 800 ppm in feed,622 g
same,Body weight at week age 3,"[4]; 1,600 ppm in feed",624 g
same,Body weight at week age 4,[4]; 100 ppm in feed,978 g
same,Body weight at week age 4,[4]; 200 ppm in feed,983 g
same,Body weight at week age 4,[4]; 400 ppm in feed,984 g
same,Body weight at week age 4,[4]; 800 ppm in feed,981 g
same,Body weight at week age 4,"[4]; 1,600 ppm in feed",980 g
same,Body weight at week age 5,[4]; 100 ppm in feed,"1,326 g"
same,Body weight at week age 5,[4]; 200 ppm in feed,"1,340 g"
same,Body weight at week age 5,[4]; 400 ppm in feed,"1,338 g"
same,Body weight at week age 5,[4]; 800 ppm in feed,"1,332 g"
same,Body weight at week age 5,"[4]; 1,600 ppm in feed","1,328 g"
same,Body weight at week age 6,[4]; 100 ppm in feed,"1,672 g"
same,Body weight at week age 6,[4]; 200 ppm in feed,"1,662 g"
same,Body weight at week age 6,[4]; 400 ppm in feed,"1,652 g"
same,Body weight at week age 6,[4]; 800 ppm in feed,"1,657 g"
same,Body weight at week age 6,"[4]; 1,600 ppm in feed","1,663 g"
same,Body weight at week age 7,[4]; 100 ppm in feed,"2,602 g"
same,Body weight at week age 7,[4]; 200 ppm in feed,"2,108 g"
same,Body weight at week age 7,[4]; 400 ppm in feed,"2,112 g"
same,Body weight at week age 7,[4]; 800 ppm in feed,"2,063 g"
same,Body weight at week age 7,"[4]; 1,600 ppm in feed","2,102 g"
same,Body weight at week age 8,[4]; 100 ppm in feed,"2,492 g"
same,Body weight at week age 8,[4]; 200 ppm in feed,"2,487 g"
same,Body weight at week age 8,[4]; 400 ppm in feed,"2,505 g"
same,Body weight at week age 8,[4]; 800 ppm in feed,"2,501 g"
same,Body weight at week age 8,"[4]; 1,600 ppm in feed","2,483 g"
same,Body weight at week age 9,[4]; 100 ppm in feed,"2,880 g"
same,Body weight at week age 9,[4]; 200 ppm in feed,"2,873 g"
same,Body weight at week age 9,[4]; 400 ppm in feed,"2,865 g"
same,Body weight at week age 9,[4]; 800 ppm in feed,"2,858 g"
same,Body weight at week age 9,"[4]; 1,600 ppm in feed","2,864 g"
same,Body weight at week age 10,[4]; 100 ppm in feed,"3,107 g"
same,Body weight at week age 10,[4]; 200 ppm in feed,"3,112 g"
same,Body weight at week age 10,[4]; 400 ppm in feed,"3,086 g"
same,Body weight at week age 10,[4]; 800 ppm in feed,"3,024 g"
same,Body weight at week age 10,"[4]; 1,600 ppm in feed","3,033 g"
same,Abdominal fat deposit,"broilers [5]; 6w, 100 ppm in feed",3.23 g/100 g
same,Abdominal fat deposit,"broilers [5]; 6w, 200 ppm in feed",3.24 g/100 g
same,Abdominal fat deposit,"broilers [5]; 6w, 400 ppm in feed",3.08 g/100 g
same,Abdominal fat deposit,"broilers [5]; 6w, 800 ppm in feed",3.14 g/100 g
same,Abdominal fat deposit,"broilers [5]; 6w, 1,600 ppm in feed",3.04 g/100 g
same,Abdominal fat deposit,"broilers [5]; 8w, 100 ppm in feed",3.72 g/100 g
same,Abdominal fat deposit,"broilers [5]; 8w, 200 ppm in feed",3.64 g/100 g
same,Abdominal fat deposit,"broilers [5]; 8w, 400 ppm in feed",3.38 g/100 g
same,Abdominal fat deposit,"broilers [5]; 8w, 800 ppm in feed",3.35 g/100 g
same,Abdominal fat deposit,"broilers [5]; 8w, 1,600 ppm in feed",3.32 g/100 g
same,Abdominal fat deposit,"broilers [5]; 10w, 100 ppm in feed",4.18 g/100 g
same,Abdominal fat deposit,"broilers [5]; 10w, 200 ppm in feed",4.03 g/100 g
same,Abdominal fat deposit,"broilers [5]; 10w, 400 ppm in feed",3.97 g/100 g
same,Abdominal fat deposit,"broilers [5]; 10w, 800 ppm in feed",3.85 g/100 g
same,Abdominal fat deposit,"broilers [5]; 10w, 1,600 ppm in feed",3.78 g/100 g

# From patent publication US4564627A, “Feed composition” (Nihon Nohyaku Co., Ltd., priority 1982, dated 1986)
